The results in this text go back to patent US9730928B2, “Trizol-1-OL analogs anti-retroviral latency drugs” (priority 2013, dated 2017).

Assay [1] relates to latent HIV-1. In words: Blocking of viral reactivation by chemical inhibitors of known signaling pathways. The assay is classed as cell-based. The conditions noted are these: reactivation stimulus HOAt. The source says: The ability of chemical inhibitors of known signaling pathways to block viral reactivation mediated by HOAt was examined (FIG. 4A). […] Activation of JAK kinases lead to the activation of the transcription factors STATs. Specific inhibitors of STAT3 and STAT5 were thus also studied.

Assay [2] concerns latent HIV-1. As to the kind of experiment: Reactivation of latent HIV-1 in latently infected cultured TCM (GFP / p24Gag by flow cytometry). Particulars: for ability to induce viral reactivation compared to the original hit HOBt: panel of 7 derivatives of HOBt (FIG. 2D); for activation of latent HIV-1 (viral reactivation): 72 hours after stimulation, GFP or p24Gag by flow cytometry. The assay is classed as cell-based. The source says:
A novel primary cell model for the study of HIV-1 latency was adapted so as to be suitable for high-throughput screening (HTS) of new compounds that may reactivate HIV-1 from its latency state (Bosque and Planelles, 2009; Bosque and Planelles, 2010; and patent application: Methods and compositions relating to viral latency, Planelles V, Basque A, U.S. Patent Application 2010/0291067 A1, November 2010).
To facilitate HTS, the nef gene was replaced with that encoding the green fluorescent protein (GFP). It was confirmed that deletion of nef has no effect in latency/reactivation (Bosque and Planelles, 2009) and that using GFP provides a faster, more economical, and equally sensitive, as compared to intracellular p24 detection, readout.
The reactivation experiments were modified to be performed in 96-well plates, utilizing 100,000 cells per well. After reactivation, flow cytometric analysis was performed with Becton Dickinson FACSCanto II with a High Throughput Sampler (HTS) for microtiter plates that is available through the Flow Cytometry Core Facility at the University of Utah. It takes about 30 minutes to analyze a plate, when acquiring 10,000 cells per well. Analysis for each well includes (a) green fluorescence as a direct indicator of viral reactivation; and (b) forward and side scatter as general measures of cell morphology, which is a gross indication of viability.
Latently infected cells were generated using healthy, uninfected DONOR 78 cells that were infected with DHIV virus. Reactivation was monitored by analysis of GFP by Flow Cytometry 72 hours after stimulation. Beads coated with anti-CD3/anti CD28 (CD3/CD28) were used as a positive reactivation stimulus. Reactivation was done in a 96-well plate round bottom. […] This compound is an intermediate en route to synthesis of a cyclic peptide isolated from a tunicate.
HPLC was used to generate 20 fractions based on elution time using a gradient from 10-100% acetonitrile in 0.1% formic acid using a Phenomenex Kinetic C18 50×2.10 mm column ([…], 100 A). The ability of these fractions to activate HIV-1 was tested and compared in parallel with the original hit. […] Further fractionation of C7 was performed and each fraction tested at the concentration indicated in the graph (FIG. 1D). […] Finally, HOBt was tested at different concentrations and analyzed on either Day 3, Day 5, or Day 7.
(In general: In flow cytometry, cells or beads pass a laser one at a time.)

In assay [3] the test system is pSTAT5. As to the kind of experiment: pSTAT5 levels 48 h after IL-2 plus derivatives, flow cytometer. The assay is classed as cell-based. Particulars: with IL-2, 48 h. As for the experimental part: Cells were treated with IL-2 and several derivatives of HOAt. Levels of pSTAT5 were measured 48 h later by flow cytometer.
Assay [4] relates to latent HIV-1. As to the kind of experiment: Reactivation of latent HIV-1 in absence or presence of γc-cytokines. The assay is classed as cell-based. Particulars: for viral reactivation in the presence of IL-2, IL-4, and IL-15: as worded; for viral reactivation in the presence of IL-2, IL-7 and IL-5: as worded in FIG. 3 legend b37; for viral reactivation in combination with IL-4: combined with IL-4; for viral reactivation in combination with IL-9 and IL-21: combined with IL-9 or IL-21; for viral reactivation in the absence of γc-cytokines: no cytokines, p24Gag 72 hours; for viral reactivation by cytokine alone: cytokine by itself, compared with absence of cytokines. As for the experimental part: Latently infected cells were generated using healthy, uninfected DONOR 78 cells that were infected with DHIV virus. Reactivation was monitored by analysis of p24Gag by Flow Cytometry 72 hours after stimulation.

Assay [5] deals with STAT5. As to the kind of experiment: STAT5 phosphorylation by flow cytometry in cultured TCM. The format is cell-based, human.
Procedure: The levels of STAT5 phosphorylation were analyzed by flow cytometry after incubating cultured TCM with HOAt, IL-2, or a combination of both, during a 24 h period (FIG. 4B).
The subject of assay [6] is STAT5. In words: Nuclear localization of STAT5. The format is cell-based, human. The conditions noted are these: IL-2 alone or in the presence of HOAt. An excerpt: Nuclear translocation of STAT5 is required for its transcriptional activity. […] Histone H3 and alpha Tubulin were used as controls for purity of the fractionation.
Another assay has as its system SOCS3. In words: Expression levels of SOCS3, a target gene for STAT5. The conditions noted are these: IL-2 and HOAt, 24 h post-treatment. The assay is classed as cell-based, human. As to the method:
STAT5 is a transcriptional activator of multiple genes. To address whether HOAt will increase the transcription of any STAT5 target genes, the expression levels of SOCS3, a target gene for STAT5, were analyzed.

The test system of assay [7] is memory T cells / cultured TCM. As to the kind of experiment: T cell activation (activation markers CD25 and CD69). The assay is classed as cell-based, human. Particulars: for increase of CD25 levels (mean intensity of fluorescence): maximum concentration used (compound), TCR engagement (αCD3/αCD28). An excerpt:
(§1) Memory cells were generated from 3 different donors and treated with either HOBt or anti-CD3/CD28 to analyze the effect of HOBt on T cell activation (FIG. 6A). Analysis of T cell activation was done by analyzing the upregulation of the activation markers CD25 and CD69 three days post activation. […] Analysis of T cell differentiation was done by analyzing the levels of CCR7 and CD27 three days post activation (FIG. 6B).
(§2) In order to determine whether HOAt is inducing T cell proliferation, culter TCM were incubated with HOAt in a dose dependent manner. […] It has been shown previously that both cultured TCM and ex vivo TCM express low levels of CD25 (Bosque et al. 2011). This level is increased by 37 times after TCR engagement with αCD3/αCD28, measured as mean intensity of fluorescence (values between parenthesis, FIG. 6D).
CD69 upregulation is concomitant with T cell activation.

The test system of another assay is cultured TCM. In words: T cell proliferation of cultured TCM. The format is cell-based, human. Particulars: dose dependent incubation. As for the experimental part:
as §2

Assay [8] concerns latent HIV-1. In words: Viral reactivation mediated by other stimuli (PMA, ionomycin, SAHA). The assay is classed as cell-based. Particulars: HOAt added to each of three stimuli.
Assay [9] deals with latent HIV-1. In words: Reactivation of latent HIV-1 in cells isolated from aviremic HIV-1 patients. The conditions noted are these: cells of two patients suppressed with antiretroviral; versus DMSO control. The format is cell-based. The source says: Briefly, cells for two patients suppressed with antiretroviral were isolated and treated with either DMSO (Control), HOAt or the mitogen PHA.

Assay [10] has as its system pSTAT5. As to the kind of experiment: pSTAT5 immunoprecipitation and western blot. The assay is classed as cell-based. The conditions noted are these: 30 min pretreatment, then IL-2 for 30 min. As for the experimental part:
STAT5 was immunoprecipitated with antibodies specific for the phosphorylated protein and western blot was performed against pSTAT5.
(In general: Immunoblotting shows a protein as a band on a membrane.)

The test system of the next assay is memory T cells. In words: T cell differentiation (CCR7 and CD27 levels). The format is cell-based, human. Particulars: three days post activation.
Excerpt: as §1

“Also recorded” adds a separate entry of the source.

As to `Cc1ccc2nc(NCCN)c3ncc(C)n3c2c1` [BMS345541], in the assay on latent HIV-1 [1], the “effect on viral reactivation induced by HOAt” value is listed as “did not have a significant effect”.
Take `O=c1c2ccccc2nnn1O` [HO-DhBt, 3-hydroxybenzo[d][1,2,3]triazin-4-(3H)-one]: in the assay with latent HIV-1 [2], the “ability to induce viral reactivation compared to the original hit HOBt” value was “able to induce viral reactivation in a dose dependent manner and with increased efficiency; also recorded: increased ability to induce viral reactivation in a dose dependent manner”. For the same molecule, the “maintenance of pSTAT5 levels” value in the assay on pSTAT5 [3] is “maintain pSTAT5 levels in a dose dependent manner”.
With `On1nnc2cccnc21` [HOAt, 1-hydroxy-7-azabenzotriazole], in the assay with latent HIV-1 [2], the “activation of latent HIV-1 (viral reactivation)” value is given as “able to reactivate HIV-1 latency; also recorded: activates HIV-1 latent cells; also recorded: activate latent HIV-1; also recorded: reactivate HIV-1 latency in a dose dependent manner” and the “ability to induce viral reactivation compared to the original hit HOBt” value is “more potent analog than the original hit; also recorded: increased activity compared to HOBt”. In addition, in the assay on latent HIV-1 [4], the “viral reactivation in the presence of IL-2, IL-4, and IL-15” value is “dramatically increase viral reactivation”; the “viral reactivation in the presence of IL-2, IL-7 and IL-5” value is reported as “increase viral reactivation”; the “viral reactivation in combination with IL-4” value is listed as “induced significant viral reactivation; also recorded: did induce significant viral reactivation”; the “viral reactivation in combination with IL-9 and IL-21” value is given as “did not have an effect in viral reactivation”. In the assay on latent HIV-1 [4], the “viral reactivation in the absence of γc-cytokines” value is given as “significantly reactivate HIV-1 latency”. Moreover, the “STAT5 phosphorylation, agent alone over untreated cells” value in the assay with STAT5 [5] (HOAt alone) is listed as “able to induce an increase in STAT5 phosphorylation over untreated cells”. Moreover, the “STAT5 phosphorylation, combination with IL-2” value with STAT5 [5] (IL-2 and HOAt) is “drastic increase in STAT5 phosphorylation”. The “STAT5 phosphorylation after 24 hrs, combination with IL-2” value in the assay on STAT5 [5] (IL-2 and HOAt, 24 hrs) is “do not significantly decrease”. For the same molecule, in the assay with STAT5 [6], the “pSTAT5 and STAT5 levels in the nucleus” value was “increased in the nucleus; also recorded: increases the nuclear localization of STAT5”. The “levels (transcription) of SOCS3” value in the assay on SOCS3 is reported as “increase the levels of SOCS3; also recorded: increases the transcription of SOC3S”. Besides, the “levels of T cell activation (CD69) compared with αCD3/αCD28” value in assay [7] (CD69 upregulation) is recorded as “slightly increases the levels of T cell activation”. The “increase of CD25 levels (mean intensity of fluorescence)” value in assay [7] was 1.4 times. For the same molecule, the T cell proliferation result in the assay with cultured TCM is recorded as “only induces some degree of cell proliferation at the higher concentration tested”. In the assay on latent HIV-1 [8], the “viral reactivation mediated by PMA, ionomycin and SAHA” value is “able to increase viral reactivation mediated by these three stimuli; also recorded: increases viral reactivation”. Moreover, the “regrowth of latent viruses in patient cells in vitro” value in the assay on latent HIV-1 [9] is recorded as “can induce regrowth of latent viruses in both patients”. In addition, in the assay with pSTAT5 [10], the “levels of pSTAT5 in the inputs” value is listed as “increases the levels of pSTAT5”. Also, in the assay on pSTAT5 [3], the “maintenance of pSTAT5 levels” value was “maintain pSTAT5 levels in a dose dependent manner”.
With `On1nnc2ccccc21` [HOBt, 1-hydroxybenzotriazole], in the assay with latent HIV-1 [2], the “activation of latent HIV-1 (viral reactivation)” value was “activate latent HIV-1 in a dose-dependent manner; also recorded: able to reactivate HIV-1 latency; also recorded: reactivate HIV-1 latency in a dose dependent manner; also recorded: activates HIV-1 latent cells”. For the same molecule, the “kinetics of HIV-1 latency reactivation compared with anti-CD3/CD28” value in the assay with latent HIV-1 [2] (analyzed on Day 3, Day 5, or Day 7) is reported as “slower kinetics”. In the assay with latent HIV-1 [4], the “viral reactivation in the presence of IL-2, IL-4, and IL-15” value is given as “dramatically increase viral reactivation”; the “viral reactivation in the presence of IL-2, IL-7 and IL-5” value is given as “increase viral reactivation”; the “viral reactivation in combination with IL-4” value is “induced significant viral reactivation; also recorded: did induce significant viral reactivation”; the “viral reactivation in combination with IL-9 and IL-21” value is reported as “did not have an effect in viral reactivation”. In addition, the “viral reactivation in the absence of γc-cytokines” value in the assay with latent HIV-1 [4] is given as “significantly reactivate HIV-1 latency”. In addition, the “increase of CD25 levels (mean intensity of fluorescence)” value in assay [7] is 1.4 times. Besides, in assay [7] (three days post activation, 3 donors), the “general T cell activation (upregulation of CD25 and CD69)” value was “does not induce general T cell activation”. The “T cell differentiation (loss of CCR7 and CD27 expression)” value in the assay on memory T cells is “does not induce T cell differentiation”. The T cell proliferation result in the assay on cultured TCM is recorded as “only induces some degree of T cell proliferation at the higher concentration tested”. In the assay on pSTAT5 [3], the “maintenance of pSTAT5 levels” value is listed as “maintain pSTAT5 levels in a dose dependent manner”.
In the case of `O=C(N/N=C/c1coc2ccccc2c1=O)c1cccnc1` [STAT5 inhibitor], the “effect on viral reactivation induced by HOAt” value with latent HIV-1 [1] is “completely abrogates viral reactivation; also recorded: completely prevent activation of latent HIV-1 by HOAt”.
Turning to IL-9: γc-cytokine, the “viral reactivation by cytokine alone” value in the assay on latent HIV-1 [4] is reported as “did not have an effect in viral reactivation; also recorded: no effect”.
In the case of IL-21: γc-cytokine, the “viral reactivation by cytokine alone” value in the assay on latent HIV-1 [4] was “did not have an effect in viral reactivation; also recorded: no effect”.

B1: IL-4: γc-cytokine (protein, UniProt P05112 25-153, looked up)
Interleukin-4: HKCDITLQEIIKTLNSLTEQKTLCTELTVTDIFAASKNTTEKETFCRAATVLRQFYSHHEKDTRCLGATAQQFHRHKQLIRFLKRLDRNLWGLAGLNSCPVKEANQSTLENFLERLKTIMREKYSKCSS
For the molecule B1, the “viral reactivation by cytokine alone” value with latent HIV-1 [4] is “not able to induce significant viral reactivation by itself; also recorded: did not induce viral reactivation by itself”.

B2: IL-7: γc-cytokine (protein, UniProt P13232 26-177, looked up)
Interleukin-7: DCDIEGKDGKQYESVLMVSIDQLLDSMKEIGSNCLNNEFNFFKRHICDANKEGMFLFRAARKLRQFLKMNSTGDFDLHLLKVSEGTTILLNCTGQVKGRKPAALGEAQPTKSLEENKSLKEQKKLNDLCFLKRLLQEIKTCWNKILMGTKEH
For the molecule B2, the “viral reactivation by cytokine alone” value in the assay with latent HIV-1 [4] is on record as “trend towards increasing viral reactivation”.
